Test results published in PubChem BioAssay (NCI).
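Growth conditions: 96-well plates. Treatment: test compound, 48 hours, 5 concentrations. Analysis: linear interpolation between bracketing concentrations; unreached endpoints set to highest concentration. The concentration for 50% growth inhibition is given as GI50. TGI is the concentration that stops growth completely.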

Tested on: SN12C renal
Test: DTP human tumour cell line panel, 48 h

Compound | TGI [µM]
O=c1cc(-c2ccc3c(c2)OCO3)[nH]c2cc3c(cc12)OCO3 | > 100
COC(=O)CC(C)(NS(=O)c1ccc(C)cc1)c1ccccc1 (stereo unspecified) | > 100
C=C1c2nc3ccccc3n2C=C(c2ccc(OC)cc2)N1c1ccc(OC)cc1 | 59
N#CSC#CCCC#CSC#N | 31.9
O=C(O)C1C2c3ccccc3C(c3ccccc32)C1C(=O)NCC1CC1 (stereo unspecified) | > 100
CCOC(=O)/C(=C/c1ccc(OC)cc1)N(CC)CC | > 100
O=c1c(F)cn(Cc2c(Cl)cccc2Cl)c(=O)n1Cc1c(Cl)cccc1Cl | > 31.6
Cc1ccc(Nc2nc(NNC(=O)Cc3ccccc3)nc(NNC(=O)c3ccncc3)n2)cc1 | > 10
Cc1ccc2nc(-c3ccccc3)cc(=O)n2c1 | > 100
Cc1cn(C2OC(CO[Si](C)(C)C(C)(C)C)C(N(C)O[Si](C)(C)C(C)(C)C)C2[Se]c2ccccc2)c(=O)[nH]c1=O (stereo unspecified) | > 100
CNC(=O)NCCCC(NC(C)=O)C(=O)NCc1ccccc1 (stereo unspecified) | > 100
O=[N+]([O-])c1ccc2nc(Nc3ccccc3)c(Nc3ccccc3)nc2c1 | 2.67
NC(Cc1ccccc1)C(=O)NC(Cc1ccccc1)NC(=O)C(Cc1c[nH]c2ccccc12)C(=O)O (stereo unspecified) | > 100
COc1cc(S(=O)(=O)Nc2ccc(-c3csc(N4C(=O)CSC4c4cccc(Oc5ccccc5)c4)n3)cc2)ccc1Cl (stereo unspecified) | > 100
Cc1ccc(S(=O)(=O)N2C3C=CC(C3)[C@@H]2C(Cl)(Cl)Cl)cc1 (stereo partly specified) | 44.2
COC(=O)c1ccc(Cc2cc(Cc3ccc(C(=O)OC)cc3)cc(Cc3ccc(C(=O)OC)cc3)c2)cc1 | > 25
C[C@]12[C@@H]3CC[C@H]1[C@@H](O)C(=O)N2CC3 | > 100
O=C(C(=O)n1ccc2ccccc21)n1ccc2ccccc21 | > 100
CC(N)/C(N)=N/O (stereo unspecified) | > 100
CCOC(=O)c1ccc(-c2cc(C)no2)[nH]1 | > 100
COc1cccc(-c2cc(=O)c3cc(N4CCCCC4)ccc3[nH]2)c1 | > 100

Tested on: COLO 205 colon
Test: DTP human tumour cell line panel, 48 h

Compound | TGI [µM]
O=c1cc(-c2ccc3c(c2)OCO3)[nH]c2cc3c(cc12)OCO3 | > 100
COC(=O)CC(C)(NS(=O)c1ccc(C)cc1)c1ccccc1 (stereo unspecified) | > 100
C=C1c2nc3ccccc3n2C=C(c2ccc(OC)cc2)N1c1ccc(OC)cc1 | > 100
N#CSC#CCCC#CSC#N | 26.7
O=C(O)C1C2c3ccccc3C(c3ccccc32)C1C(=O)NCC1CC1 (stereo unspecified) | > 100
CCOC(=O)/C(=C/c1ccc(OC)cc1)N(CC)CC | > 100
O=c1c(F)cn(Cc2c(Cl)cccc2Cl)c(=O)n1Cc1c(Cl)cccc1Cl | > 31.6
Cc1ccc(Nc2nc(NNC(=O)Cc3ccccc3)nc(NNC(=O)c3ccncc3)n2)cc1 | > 10
Cc1ccc2nc(-c3ccccc3)cc(=O)n2c1 | > 100
Cc1cn(C2OC(CO[Si](C)(C)C(C)(C)C)C(N(C)O[Si](C)(C)C(C)(C)C)C2[Se]c2ccccc2)c(=O)[nH]c1=O (stereo unspecified) | > 100
CNC(=O)NCCCC(NC(C)=O)C(=O)NCc1ccccc1 (stereo unspecified) | > 100
O=[N+]([O-])c1ccc2nc(Nc3ccccc3)c(Nc3ccccc3)nc2c1 | 2.97
NC(Cc1ccccc1)C(=O)NC(Cc1ccccc1)NC(=O)C(Cc1c[nH]c2ccccc12)C(=O)O (stereo unspecified) | > 100
COc1cc(S(=O)(=O)Nc2ccc(-c3csc(N4C(=O)CSC4c4cccc(Oc5ccccc5)c4)n3)cc2)ccc1Cl (stereo unspecified) | > 100
O=S(=O)(O)c1cc(N=Nc2c(O)ccc3ccccc23)cc2c(S(=O)(=O)O)cccc12 | > 100
Cc1ccc(S(=O)(=O)N2C3C=CC(C3)[C@@H]2C(Cl)(Cl)Cl)cc1 (stereo partly specified) | 38.2
C[C@]12[C@@H]3CC[C@H]1[C@@H](O)C(=O)N2CC3 | > 100
O=C(C(=O)n1ccc2ccccc21)n1ccc2ccccc21 | > 100
CC(N)/C(N)=N/O (stereo unspecified) | > 100
CCOC(=O)c1ccc(-c2cc(C)no2)[nH]1 | > 100

Tested on: SF-539 CNS
Test: DTP human tumour cell line panel, 48 h

Compound | TGI [µM]
O=c1cc(-c2ccc3c(c2)OCO3)[nH]c2cc3c(cc12)OCO3 | 69.1
COC(=O)CC(C)(NS(=O)c1ccc(C)cc1)c1ccccc1 (stereo unspecified) | > 100
C=C1c2nc3ccccc3n2C=C(c2ccc(OC)cc2)N1c1ccc(OC)cc1 | 64.8
N#CSC#CCCC#CSC#N | 41.2
O=C(O)C1C2c3ccccc3C(c3ccccc32)C1C(=O)NCC1CC1 (stereo unspecified) | > 100
CCOC(=O)/C(=C/c1ccc(OC)cc1)N(CC)CC | > 100
O=c1c(F)cn(Cc2c(Cl)cccc2Cl)c(=O)n1Cc1c(Cl)cccc1Cl | > 31.6
Cc1ccc(Nc2nc(NNC(=O)Cc3ccccc3)nc(NNC(=O)c3ccncc3)n2)cc1 | > 10
Cc1ccc2nc(-c3ccccc3)cc(=O)n2c1 | > 100
CNC(=O)NCCCC(NC(C)=O)C(=O)NCc1ccccc1 (stereo unspecified) | > 100
O=[N+]([O-])c1ccc2nc(Nc3ccccc3)c(Nc3ccccc3)nc2c1 | 2.98
NC(Cc1ccccc1)C(=O)NC(Cc1ccccc1)NC(=O)C(Cc1c[nH]c2ccccc12)C(=O)O (stereo unspecified) | > 100
COc1cc(S(=O)(=O)Nc2ccc(-c3csc(N4C(=O)CSC4c4cccc(Oc5ccccc5)c4)n3)cc2)ccc1Cl (stereo unspecified) | > 100
O=S(=O)(O)c1cc(N=Nc2c(O)ccc3ccccc23)cc2c(S(=O)(=O)O)cccc12 | > 100
Cc1ccc(S(=O)(=O)N2C3C=CC(C3)[C@@H]2C(Cl)(Cl)Cl)cc1 (stereo partly specified) | 30
COC(=O)c1ccc(Cc2cc(Cc3ccc(C(=O)OC)cc3)cc(Cc3ccc(C(=O)OC)cc3)c2)cc1 | > 25
O=C(C(=O)n1ccc2ccccc21)n1ccc2ccccc21 | > 100
CC(N)/C(N)=N/O (stereo unspecified) | > 100
CON(C)C(=O)C(C)N(Cc1ccccc1)Cc1ccccc1 (stereo unspecified) | > 100
CCOC(=O)c1ccc(-c2cc(C)no2)[nH]1 | > 100
COc1cccc(-c2cc(=O)c3cc(N4CCCCC4)ccc3[nH]2)c1 | 0.0139

Tested on: SK-OV-3 ovarian
Test: DTP human tumour cell line panel, 48 h

Compound | TGI [µM] | GI50 [µM]
O=c1cc(-c2ccc3c(c2)OCO3)[nH]c2cc3c(cc12)OCO3 | 99.4 | 
COC(=O)CC(C)(NS(=O)c1ccc(C)cc1)c1ccccc1 (stereo unspecified) | > 100 | 
C=C1c2nc3ccccc3n2C=C(c2ccc(OC)cc2)N1c1ccc(OC)cc1 | 63.4 | 
N#CSC#CCCC#CSC#N | 29.7 | 
O=C(O)C1C2c3ccccc3C(c3ccccc32)C1C(=O)NCC1CC1 (stereo unspecified) | > 100 | 
CCOC(=O)/C(=C/c1ccc(OC)cc1)N(CC)CC | > 100 | 
O=c1c(F)cn(Cc2c(Cl)cccc2Cl)c(=O)n1Cc1c(Cl)cccc1Cl | > 31.6 | 
Cc1ccc(Nc2nc(NNC(=O)Cc3ccccc3)nc(NNC(=O)c3ccncc3)n2)cc1 | > 10 | 
Cc1ccc2nc(-c3ccccc3)cc(=O)n2c1 | > 100 | 
Cc1cn(C2OC(CO[Si](C)(C)C(C)(C)C)C(N(C)O[Si](C)(C)C(C)(C)C)C2[Se]c2ccccc2)c(=O)[nH]c1=O (stereo unspecified) | > 100 | 
CNC(=O)NCCCC(NC(C)=O)C(=O)NCc1ccccc1 (stereo unspecified) | > 100 | 
O=[N+]([O-])c1ccc2nc(Nc3ccccc3)c(Nc3ccccc3)nc2c1 | 2.88 | 
NC(Cc1ccccc1)C(=O)NC(Cc1ccccc1)NC(=O)C(Cc1c[nH]c2ccccc12)C(=O)O (stereo unspecified) | > 100 | 
COc1cc(S(=O)(=O)Nc2ccc(-c3csc(N4C(=O)CSC4c4cccc(Oc5ccccc5)c4)n3)cc2)ccc1Cl (stereo unspecified) | > 100 | 
O=S(=O)(O)c1cc(N=Nc2c(O)ccc3ccccc23)cc2c(S(=O)(=O)O)cccc12 | > 100 | 
Cc1ccc(S(=O)(=O)N2C3C=CC(C3)[C@@H]2C(Cl)(Cl)Cl)cc1 (stereo partly specified) | > 100 | 39.2
COC(=O)c1ccc(Cc2cc(Cc3ccc(C(=O)OC)cc3)cc(Cc3ccc(C(=O)OC)cc3)c2)cc1 | > 25 | 
C[C@]12[C@@H]3CC[C@H]1[C@@H](O)C(=O)N2CC3 | > 100 | 
O=C(C(=O)n1ccc2ccccc21)n1ccc2ccccc21 | > 100 | 
CC(N)/C(N)=N/O (stereo unspecified) | > 100 | 
CON(C)C(=O)C(C)N(Cc1ccccc1)Cc1ccccc1 (stereo unspecified) | > 100 | 
CCOC(=O)c1ccc(-c2cc(C)no2)[nH]1 | > 100 | 
COc1cccc(-c2cc(=O)c3cc(N4CCCCC4)ccc3[nH]2)c1 | > 100 | 
